The values below come from patent US8034936B2, “Spirocyclic cyclohexane compounds useful to treat substance dependency” (Gruenenthal GmbH, priority 2005, dated 2011).

In one assay the target is HERG channel (Homo sapiens, UniProt Q12809). The conditions noted are these: read-out: IC50, HERG channel; Katchman et al. 2002; cited from earlier work.
Another assay has as its target human μ-opiate receptor (Homo sapiens, UniProt P35372). The experiment in a line: μ-opiate receptor binding, [3H]-naloxone displacement, CHO-K1 membrane preparation. The conditions noted are these: No. 1-49.
The test system of another assay is mice. The conditions noted are these: mouse, in vivo, ip, 30 mg/kg.

Chain of human μ-opiate receptor (P35372 whole entry): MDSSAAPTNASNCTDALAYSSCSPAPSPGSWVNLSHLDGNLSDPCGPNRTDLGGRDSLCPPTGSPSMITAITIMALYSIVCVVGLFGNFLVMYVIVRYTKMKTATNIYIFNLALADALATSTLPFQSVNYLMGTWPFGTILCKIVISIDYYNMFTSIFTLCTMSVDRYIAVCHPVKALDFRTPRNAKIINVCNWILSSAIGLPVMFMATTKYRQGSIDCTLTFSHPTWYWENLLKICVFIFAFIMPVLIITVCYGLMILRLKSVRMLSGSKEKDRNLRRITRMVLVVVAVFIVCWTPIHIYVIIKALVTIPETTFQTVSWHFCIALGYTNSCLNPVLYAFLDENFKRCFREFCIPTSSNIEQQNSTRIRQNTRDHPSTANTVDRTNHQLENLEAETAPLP
Chain of HERG channel (Q12809 whole entry): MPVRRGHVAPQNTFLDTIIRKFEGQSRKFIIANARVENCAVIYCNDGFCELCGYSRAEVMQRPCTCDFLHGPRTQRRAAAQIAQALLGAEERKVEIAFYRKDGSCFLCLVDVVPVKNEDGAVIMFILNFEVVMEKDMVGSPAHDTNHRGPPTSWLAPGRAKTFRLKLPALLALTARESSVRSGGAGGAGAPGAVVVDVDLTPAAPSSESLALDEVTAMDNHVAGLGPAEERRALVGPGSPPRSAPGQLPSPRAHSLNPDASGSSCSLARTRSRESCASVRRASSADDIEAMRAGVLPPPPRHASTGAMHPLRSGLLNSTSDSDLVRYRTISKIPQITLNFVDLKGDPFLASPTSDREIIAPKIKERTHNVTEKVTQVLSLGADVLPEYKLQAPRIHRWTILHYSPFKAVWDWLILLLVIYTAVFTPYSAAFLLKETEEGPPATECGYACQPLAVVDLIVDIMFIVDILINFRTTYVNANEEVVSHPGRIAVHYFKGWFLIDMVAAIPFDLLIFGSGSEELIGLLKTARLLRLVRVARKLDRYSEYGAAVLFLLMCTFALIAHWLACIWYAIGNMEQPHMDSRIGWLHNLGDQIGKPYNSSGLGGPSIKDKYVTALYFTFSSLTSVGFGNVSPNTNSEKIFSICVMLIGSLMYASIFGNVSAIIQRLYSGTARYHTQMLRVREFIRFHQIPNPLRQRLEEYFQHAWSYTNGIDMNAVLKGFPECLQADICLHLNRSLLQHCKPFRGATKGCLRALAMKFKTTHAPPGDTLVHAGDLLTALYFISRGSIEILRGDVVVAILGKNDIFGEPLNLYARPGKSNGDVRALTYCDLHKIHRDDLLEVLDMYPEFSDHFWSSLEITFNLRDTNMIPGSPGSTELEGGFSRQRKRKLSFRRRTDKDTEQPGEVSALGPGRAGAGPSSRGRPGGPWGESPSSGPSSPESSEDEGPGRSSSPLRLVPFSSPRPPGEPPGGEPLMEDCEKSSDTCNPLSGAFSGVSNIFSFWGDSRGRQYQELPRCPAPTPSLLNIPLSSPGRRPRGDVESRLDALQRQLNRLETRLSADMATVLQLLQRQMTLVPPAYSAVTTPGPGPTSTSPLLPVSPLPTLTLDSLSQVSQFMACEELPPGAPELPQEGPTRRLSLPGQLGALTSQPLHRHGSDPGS

For the compound `CCC(=O)C(CC(C)N(C)C)(c1ccccc1)c1ccccc1` (racemic) [methadone], on HERG channel, the IC50 is 9.8 µM. Take `CN(C)C1(c2ccccc2)CCC2(CC1)NCCc1c2oc2ccccc12` (stereo not drawn) [Example 12, 1,1-(3-dimethylamino-3-phenylpentamethylene)-1,3,4,9-tetrahydro-2-aza-9-oxafluorene]: at human μ-opiate receptor, affinity was put at a Ki of 0.17 µM.

`CCC(=O)C(C[C@@H](C)N(C)C)(c1ccccc1)c1ccccc1` [Levomethadone, levomethadone]: the “withdrawal jumping triggered by naloxone” value in the assay with mice is reported as “induced withdrawal jumping”.

Usually IC50 stands for the concentration that gives 50% inhibition. Broadly, the Ki is a dissociation constant, usually derived from enzyme kinetics or from competition with a known ligand.
